What was measured:
CYP7a mRNA = assay: Liver CYP7a mRNA by quantitative PCR in treated mice; format: in vivo; conditions: for CYP7a mRNA induction: daily oral 7 days
Source text: The CYP7a gene encodes cholesterol 7α-hydroxylase, the rate-limiting enzyme in the catabolic conversion of cholesterol to bile acids. Increases in CYP7a activity stimulate the conversion of cholesterol to bile acids and may reduce plasma cholesterol levels by depleting hepatocytes of cholesterol. Intracellular cholesterol depletion should stimulate the uptake of LDL particles from the plasma by liver hepatocytes. To determine the contribution of LXRα and LXRβ to the induction of CYP7a by LXR agonists, Compound 1 was administered for seven days by daily oral gavage in a sesame oil/ethanol vehicle via a 1-cc syringe fitted with a 20G disposable feeding needle. Compound was solvated in ethanol (5% final volume) and brought up to final volume with sesame oil (Sigma, St. Louis, Mo.). Three hours after the final dose (day 7) animals were sacrificed, livers were harvested, and total liver RNA was isolated using RNeasy kits (QIAGEN Inc.) according to the supplier's total RNA isolation procedure. The RNA samples were further treated with deoxyribonuclease 1 to eliminate contaminating genomic DNA. CYP7a mRNA levels were than analyzed by real-time based quantitative PCR using Perkin Elmer ABI Prism 7700 and Sequence Detection System software (Perkin Elmer). […] As expected no induction is observed in LXRαβ−/− mice.

[1] = Plasma glucose levels in db/db mice; format: in vivo; conditions: 50 mg/kg daily oral gavage, 14 days
Source text: Cardiovascular disease is one of the major complications of type II diabetes. […] A mouse model of type II diabetes is the diabetic (db/db) mouse. [See Coleman, D. L. (1978), Obese and Diabetes: Two Mutant Genes Causing Diabetes-Obesity Syndrom In Mice. Diabetologia 14, 141-148; and Hong Chen, Olga […], Louis […], Elizabeth A. Woolf, Xun Weng, Stephen J. Ellis, […], Janice Culpepper, Karen J. More, Roger E. Breitbart, Geoffrey M. Duyk, Robert I. and Jay P. Morgenstern (1996), Evidence That The Diabetes Gene Encodes The Leptin Receptor: Identification Of A Mutation In The Leptin Receptor In db/db Mice, Cell 84, 491-495.] […] To examine the ability of LXR agonists to modulate blood glucose levels, db/db mice were treated for 14 days with 50 mg compound/kg body weight of the LXR agonist Compound 1. As a positive control animals were also treated with 30 mg compound/kg body weight of the retinoid X receptor (RXR) agonist. […] Both compounds were administered by daily oral gavage in a sesame oil/ethanol vehicle via a 1-cc syringe fitted with a 20G disposable feeding needle. […] Plasma glucose levels were determined using a colorimetric enzymatic assay adapted to a 96 well plate format (Sigma, St. Louis, Mo.). […] The absorbance of the samples and standards were read using a Multiskan plate reader.

ABCA1 mRNA = assay: Intestinal mucosa ABCA1 mRNA by quantitative PCR in treated mice; format: in vivo; conditions: daily oral 7 days
Description: The LXR pan-agonist-dependent inhibition of cholesterol absorption is believed to result from the ability of LXRs to induce the expression of ATP binding cassette transporters such as ABCA1 in the intestine. To examine the contributions of LXRα and LXRβ to intestinal gene expression and dietary cholesterol absorption, Compound 1 was administered to wildtype, LXRα−/−, LXRβ−/− and LXRαβ−/− mice for seven days by daily oral gavage in a sesame oil/ethanol vehicle via a 1 cc syringe fitted with a 20G disposable feeding needle. Compound was solvated in ethanol (5% final volume) and brought up to final volume with sesame oil (Sigma, St. Louis, Mo.). Three hours after the final dose (day 7) animals were sacrificed, intestines were harvested, and intestinal enterocytes were isolated by gently scraping the mucosa layer away from the rest of the tissue. Total intestinal mucosa RNA was isolated using RNeasy kits (QIAGEN Inc.) according to the supplier's total RNA isolation procedure. The RNA samples were further treated with deoxyribonuclease I to eliminate contaminating genomic DNA. ABCA1 mRNA levels were than analyzed by real-time based quantitative PCR using Perkin Elmer ABI Prism 7700 and Sequence Detection System software (Perkin Elmer). […] No induction is observed in LXRαβ−/− mice. Thus either LXRα or LXRβ alone is sufficient to induce ABCA1 in the intestine and inhibit the absorption of dietary cholesterol.

LXRα = biological target: T1, LXRα (Homo sapiens, UniProt Q13133); conditions: stated as considered, no test described; cited from earlier work
T1 sequence (Q13133 1-447): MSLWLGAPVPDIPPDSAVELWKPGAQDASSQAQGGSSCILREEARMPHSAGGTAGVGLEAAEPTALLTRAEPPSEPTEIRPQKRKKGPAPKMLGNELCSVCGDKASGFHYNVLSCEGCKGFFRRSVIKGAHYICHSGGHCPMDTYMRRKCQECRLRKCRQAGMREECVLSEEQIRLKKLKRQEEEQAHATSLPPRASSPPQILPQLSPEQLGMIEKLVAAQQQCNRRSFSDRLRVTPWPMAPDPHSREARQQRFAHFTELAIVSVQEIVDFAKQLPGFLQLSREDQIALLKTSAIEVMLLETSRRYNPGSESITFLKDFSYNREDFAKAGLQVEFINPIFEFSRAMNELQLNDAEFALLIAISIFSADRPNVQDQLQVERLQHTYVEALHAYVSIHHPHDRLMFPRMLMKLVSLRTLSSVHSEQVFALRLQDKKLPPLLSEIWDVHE

- ABCA1 mRNA fold induction in the intestine (ABCA1 mRNA; LXRα−/− mice, depending on the strain): 7-14 fold
- ABCA1 mRNA fold induction in the intestine (ABCA1 mRNA; LXRβ−/− mice): 9 fold
- ABCA1 mRNA fold induction in the intestine (ABCA1 mRNA; wildtype mice, depending on the strain): 14-29 fold
SMILES: O=S(=O)(c1ccccc1)N(CC(F)(F)F)c1ccc(C(O)(C(F)(F)F)C(F)(F)F)cc1 [Compound 1, N-(2,2,2-trifluoroethyl)-N-[4-(2,2,2-trifluoro-1-hydroxy-1-trifluoromethylethyl)-phenyl]-benzene sulfonamide]
- CYP7a mRNA induction (CYP7a mRNA; LXRαβ−/− mice): no induction
- CYP7a mRNA induction (CYP7a mRNA; LXRα−/− mice): can induce transcription of the CYP7a gene
- CYP7a induction level relative to wildtype agonist-treated mice (CYP7a mRNA; LXRβ alone (LXRα−/− mice)): 20%-50%
- CYP7a mRNA induction (CYP7a mRNA; LXRβ−/− mice): can induce transcription of the CYP7a gene
- CYP7a mRNA induction (CYP7a mRNA; wildtype mice): can induce transcription of the CYP7a gene
- effect on plasma glucose (hyperglycemia) [1]: significantly reduces hyperglycemia in db/db mice
- ABCA1 mRNA induction in the intestine (ABCA1 mRNA; LXRαβ−/− mice): No induction
- binding and activation of LXRα (LXRα): binds and activates both LXRα and LXRβ with similar potency and efficacy

Reference: patent US6924311B2, “Methods for affecting various diseases utilizing LXR compounds” (X-Ceptor Therapeutics, Inc., priority 2001, dated 2005)
